Molecular target: PAR4 (Homo sapiens (Human), UniProt Q96RI0)
Test: PAR4 FLIPR assay (antagonism of agonist-peptide-induced calcium mobilization)
Format: cell-based
Settings: H-Ala-Phe(4-F)-[…]NH2-induced intracellular calcium mobilization, PAR4-expressing HEK293 cells; read-out: PAR4 FLTPR assay (IC50)
Text: The Fluorometric Imaging Plate Reader (FLIPR) assay is an exemplary in vitro assay for measuring the activity of the PAR4 antagonists of the present invention. In this assay, intracellular calcium mobilization is induced in PAR4 expressing cells by a PAR4 agonist and calcium mobilization is monitored.
HEK293 cells stably expressing PAR4 were generated by a standard method of transfection of human PAR4 (F2R23) cDNA expression vector and selected based on PAR4 protein expression or mRNA expression. […] These cells also express endogenous PAR1 and can elicit calcium signal upon stimulation with PAR1 agonist peptide. Therefore, the same cells were also used to determine selectivity against PAR1 and agonist activity for both receptors. Cells from HEK293 PAR4 Clone 1.2A (BMS Arctic ID 383940) were propagated and used for calcium mobilization studies.
FLIPR-based calcium mobilization assay in HEK293 cells was used to measure PAR4 antagonism agonism, and selectivity against PAR1. The activity of the PAR4 antagonists of the present invention were tested in PAR4 expressing cells by monitoring H-Ala-Phe(4-F)-[…]NH2-induced intracellular calcium mobilization. Counter screens for agonist activity and PAR1 antagonist activity were also performed. Briefly, PAR/PAR4-expressing HEK293 cells were grown in DMEM (Life Technology, Grand Island, N.Y.) containing 10% heat-inactivated FBS, 1% Penicillin-Streptomycin, 10 μg/mL blasticidin, and 100 μg/mL Zeocin at 37° C. with 5% CO2. Cells were plated overnight prior to the experiment in a black 384-well Purecoat Amine clear bottom plate (Becton Dickinson Biosciences, San Jose, Calif.) at 10,000 cells/well in 30 μL growth medium and incubated in a humidified chamber at 37° C. with 5% CO2 overnight. Prior to compound addition, the cell medium was replaced with 40 μL of 1× calcium and magnesium-containing Hank's Balanced Saline Solution (HBSS) (with 20 mM HEPES) and 1:1000 diluted fluorescent calcium indicator (Codex Biosolutions, Gaithersburg, Md.). After a 30 minute incubation period at 37° C. and a further 30 minute incubation and equilibration period at room temperature, 20 μL test compound (diluted in 1×HBSS buffer) was added at various concentrations at 0.17% dimethyl sulfoxide (DMSO) final concentration. Changes in fluorescence intensity were measured using a Functional Drug Screening System (FDSS, Hamamatsu, Japan) to determine agonist activities. The cells were then incubated for 30 minutes at room temperature followed by addition of 20 μL of agonist peptide for antagonist activity measurement. […] Compound potency was derived from 11-point concentration-response curves.

PAR4, sequence (Q96RI0 18-385): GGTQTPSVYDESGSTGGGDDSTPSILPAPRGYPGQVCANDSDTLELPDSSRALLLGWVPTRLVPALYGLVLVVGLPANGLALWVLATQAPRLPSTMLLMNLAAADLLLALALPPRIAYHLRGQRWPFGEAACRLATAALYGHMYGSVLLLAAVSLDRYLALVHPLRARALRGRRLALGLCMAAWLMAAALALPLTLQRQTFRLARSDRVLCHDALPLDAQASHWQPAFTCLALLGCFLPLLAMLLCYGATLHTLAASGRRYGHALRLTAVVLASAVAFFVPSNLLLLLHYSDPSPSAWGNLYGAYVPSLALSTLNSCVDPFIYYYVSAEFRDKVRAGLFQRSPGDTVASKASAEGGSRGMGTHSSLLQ

Row | Structure (SMILES) | IC50
1 | COc1cnc2c(-c3nc4cc(F)c(OC5CC(F)(F)CC[C@@H]5OC(=O)Nc5cnc(C)nc5)cc4s3)cc(C)cc2n1 (mixture of isomers) [Example 7] | 0.67 nM
2 | COc1cnc2c(-c3nc4cc(F)c(OC5CC(F)(F)CC[C@@H]5OC(=O)Nc5cnc(OC)nc5)cc4s3)cc(C)cc2n1 (mixture of isomers) [Example 11] | 2.8 nM
3 | COc1cnc2c(-c3nc4cc(F)c(OC5CC(F)(F)CC[C@@H]5OC(=O)Nc5cncc(C#N)c5)cc4s3)cc(C)cc2n1 (mixture of isomers) [Example 12] | 5.7 nM
4 | COc1ccc(NC(=O)O[C@H]2CCC(F)(F)CC2Oc2cc3sc(-c4cc(C)cc5nc(OC)cnc45)nc3cc2F)cn1 (mixture of isomers) [Example 14] | 2.4 nM
5 | COc1cnc2c(-c3nc4cc(F)c(OC5CCC[C@@H]5O)cc4s3)cc(C)cc2n1 (mixture of isomers) [Example 21, rac-cis-2-((5-fluoro-2-(2-methoxy-7-methylquinoxalin-5-yl)benzo[c]thiazol-6-yl)oxy)cyclopentanol] | 470 nM
6 | COc1ccc(NC(=O)O[C@@H]2CCC[C@H]2Oc2cc3sc(-c4cc(C)cc5nc(OC)cnc45)nc3cc2F)cn1 (racemic) [Example 28] | 96 nM
7 | COc1ccc(NC(=O)O[C@@H]2CCC[C@@H]2Oc2cc3sc(-c4cc(C)cc5nc(OC)cnc45)nc3cc2F)cn1 (racemic) [Example 33] | 3.1 nM
8 | COc1cnc2c(-c3nc4cc(F)c(O[C@H]5CCC[C@H]5OC(=O)Nc5cnc(C)nc5)cc4s3)cc(C)cc2n1 (racemic) [Example 35] | 2.5 nM
9 | COc1cnc2c(-c3nc4cc(F)c(O[C@H]5CCC[C@H]5OC(=O)Nc5cccnc5)cc4s3)cc(C)cc2n1 (racemic) [Example 38] | 9.4 nM
10 | COc1cnc2c(-c3nc4cc(F)c(O[C@@H]5CCC[C@@H]5OC)cc4s3)cc(C)cc2n1 (racemic) [Example 40, rac-5-fluoro-2-(2-methoxy-7-methylquinoxalin-5-yl)-6-((cis-2-methoxycyclopentyl)oxy)benzo[d]thiazole] | 83 nM
11 | COc1cnc2c(-c3nc4cc(F)c(O[C@@H]5CCC[C@H]5O)cc4s3)cc(C)cc2n1 (racemic) [Example 41, rac-trans-2-((5-fluoro-2-(2-methoxy-7-methylquinoxalin-5-yl)benzo[d]thiazol-6-yl)oxy)cyclopentanol] | 180 nM
12 | COc1cnc2c(-c3nc4cc(F)c(O[C@@H]5CCC[C@H]5OC)cc4s3)cc(C)cc2n1 (racemic) [Example 42, rac-5-fluoro-2-(2-methoxy-7-methylquinoxalin-5-yl)-6-((trans-2-methoxycyclopentyl)oxy)benzo[d]thiazole] | 320 nM
13 | COc1cnc2c(-c3nc4cc(F)c(O[C@@H]5CCC[C@H]5O)cc4s3)cc(CO)cc2n1 (racemic) [Example 43, rac-trans-2-((5-fluoro-2-(7-(hydroxymethyl)-2-methoxyquinoxalin-5-yl)benzo[d]thiazol-6-yl)oxy)cyclopentanol] | 22 nM
14 | COc1cnc2c(-c3nc4cc(F)c(O[C@@H]5CCC[C@@H]5OC(=O)Nc5cccnc5)cc4s3)cc(CO)cc2n1 (racemic) [Example 44, rac-cis-2-((5-fluoro-2-(7-(hydroxymethyl)-2-methoxyquinoxalin-5-yl)benzo[d]thiazol-6-yl)oxy)cyclopentyl pyridin-3-ylcarbamate] | 25 nM
15 | COc1cnc2c(-c3nc4cc(F)c(O[C@@H]5CCC[C@@H]5OC(=O)Nc5cncc(C#N)c5)cc4s3)cc(C#N)cc2n1 (racemic) [Example 45, rac-cis-2-((2-(7-cyano-2-methoxyquinoxalin-5-yl)-5-fluorobenzo[d]thiazol-6-yl)oxy)cyclopentyl (5-cyanopyridin-3-yl)carbamate] | 2.2 nM
16 | COc1cnc2c(-c3nc4cc(F)c(O[C@@H]5CCC[C@@H]5OC(=O)Nc5cnc(C)nc5)cc4s3)cc(C#N)cc2n1 (racemic) [Example 46, rac-cis-2-((2-(7-cyano-2-methoxyquinoxalin-5-yl)-5-fluorobenzo[d]thiazol-6-yl)oxy)cyclopentyl (2-methylpyrimidin-5-yl)carbamate] | 2 nM
17 | COc1ccc(NC(=O)O[C@@H]2CCCC[C@H]2Oc2cc3sc(-c4cc(C)cc5nc(OC)cnc45)nc3cc2F)cn1 (racemic) [Example 53, rac-trans-2-((5-fluoro-2-(2-methoxy-7-methylquinoxalin-5-yl)benzo[d]thiazol-6-yl)oxy)cyclohexyl (6-methoxypyridin-3-yl)carbamate] | 94 nM
18 | COc1cnc2c(-c3nc4cc(F)c(O[C@@H]5CCCC[C@H]5OC(=O)Nc5cnc(C)nc5)cc4s3)cc(C)cc2n1 (racemic) [Example 54, rac-trans-2-((5-fluoro-2-(2-methoxy-7-methylquinoxalin-5-yl)benzo[d]thiazol-6-yl)oxy)cyclohexyl (2-methylpyrimidin-5-yl)carbamate] | 13 nM
19 | COc1cnc2c(-c3nc4cc(F)c(O[C@@H]5CCCC[C@@H]5OC(=O)Nc5cccnc5)cc4s3)cc(C)cc2n1 (racemic) [Example 55, rac-cis-2-((5-fluoro-2-(2-methoxy-7-methylquinoxalin-5-yl)benzo[d]thiazol-6-yl)oxy) cyclohexyl pyridin-3-ylcarbamate] | 1.4 nM
20 | COc1cnc2c(-c3nc4cc(F)c(O[C@@H]5CCCC[C@@H]5OC(=O)Nc5ccncc5)cc4s3)cc(C)cc2n1 (racemic) [Example 56, rac-cis-2-((5-fluoro-2-(2-methoxy-7-methylquinoxalin-5-yl)benzo[d]thiazol-6-yl)oxy) cyclohexyl pyridin-4-ylcarbamate] | 1.8 nM
21 | COc1ccc(NC(=O)O[C@H]2CCCC[C@H]2Oc2cc3sc(-c4cc(C)cc5nc(OC)cnc45)nc3cc2F)cn1 (racemic) [Example 57, rac-cis-2-((5-fluoro-2-(2-methoxy-7-methylquinoxalin-5-yl)benzo[d]thiazol-6-yl)oxy) cyclohexyl (6-methoxypyridin-3-yl)carbamate] | 6.1 nM
22 | COc1cnc2c(-c3nc4cc(F)c(O[C@@H]5CC[C@@H]5OC(=O)Nc5cnc(C)nc5)cc4s3)cc(C)cc2n1 (racemic) [Example 61, rac-cis-2-((5-fluoro-2-(2-methoxy-7-methylquinoxalin-5-yl)benzo[d]thiazol-6-yl)oxy) cyclobutyl (2-methylpyrimidin-5-yl)carbamate] | 1.3 nM
23 | COc1ccc(NC(=O)O[C@H]2CC[C@H]2Oc2cc3sc(-c4cc(C)cc5nc(OC)cnc45)nc3cc2F)cn1 (racemic) [Example 66] | 0.79 nM
24 | COc1cnc2c(-c3nc4cc(F)c(O[C@@H]5CC[C@@H]5OC(=O)Nc5cnc(OCCO)nc5)cc4s3)cc(C)cc2n1 (racemic) [Example 71] | 1.6 nM
25 | COc1cnc2c(-c3nc4cc(F)c(O[C@@H]5CC[C@@H]5OC(=O)Nc5cnc(OCCO)nc5)cc4s3)cc(Cl)cc2c1 (racemic) [Example 79] | 0.9 nM
26 | COc1cnc2c(-c3nc4cc(F)c(O[C@@H]5CC[C@@H]5OC(=O)Nc5cnc(C)nc5)cc4s3)cc(Cl)cc2c1 (racemic) [Example 82] | 1.1 nM
27 | COc1cnc2c(-c3nc4cc(F)c(O[C@@H]5CC(C)(C)C[C@@H]5OC(=O)Nc5cnc(C)nc5)cc4s3)cc(C)cc2n1 (racemic) [Example 83] | 6.8 nM
28 | COc1cnc2c(-c3nc4cc(F)c(O[C@@H]5COC[C@@H]5OC(=O)Nc5cnc(C)nc5)cc4s3)cc(C)cc2n1 (racemic) [Example 86, rac-cis-4-((5-fluoro-2-(2-methoxy-7-methylquinoxalin-5-yl)benzo[d]thiazol-6-yl)oxy) tetrahydrofuran-3-yl (2-methylpyrimidin-5-yl)carbamate] | 2.7 nM
29 | COc1ccc(NC(=O)O[C@H]2COC[C@H]2Oc2cc3sc(-c4cc(C)cc5nc(OC)cnc45)nc3cc2F)cn1 (racemic) [Example 87, rac-cis-4-((5-fluoro-2-(2-methoxy-7-methylquinoxalin-5-yl)benzo[d]thiazol-6-yl)oxy) tetrahydrofuran-3-yl (6-methoxypyridin-3-yl)carbamate] | 6.2 nM
30 | COc1ccc(NC(=O)O[C@H]2CCOC[C@H]2Oc2cc3sc(-c4cc(C)cc5nc(OC)cnc45)nc3cc2F)cn1 (racemic) [Example 88, rac-cis-3-((5-fluoro-2-(2-methoxy-7-methylquinoxalin-5-yl)benzoldithiazol-6-yl)oxy)tetrahydro-2H-pyran-4-yl (6-methoxypyridin-3-yl)carbamate] | 21 nM

From US10730868B2, “Bicyclic heteroaryl substituted compounds” (BRISTOL-MYERS SQUIBB COMPANY, priority 2016, dated 2020)
